Values belong to the molecule of their own block, whether it stands above or below them.
Experiments:
Experiment in all cases: radiometric filter-binding kinase assay
CHEK2 (human) = CHEK2 (human) (UniProt O96017)
CLK2 (human) = CLK2 (human) (UniProt P49760)
DAPK1 (human) = DAPK1 (human) (UniProt P53355)
DYRK2 (human) = DYRK2 (human) (UniProt Q92630)
DYRK3 (human) = DYRK3 (human) (UniProt O43781)
EPHA2 (human) = EPHA2 (human) (UniProt P29317)
EPHB1 (human) = EPHB1 (human) (UniProt P54762)
EPHB2 (human) = EPHB2 (human) (UniProt P29323)
EPHB4 (human) = EPHB4 (human) (UniProt P54760)
FLT1 (human) = FLT1 (human) (UniProt P17948)
GCK (human) = GCK (human) (UniProt Q12851)
HIPK2 (human) = HIPK2 (human) (UniProt Q9H2X6)
IKBKE (human) = IKBKE (human) (UniProt Q14164)
IRAK4 (human) = IRAK4 (human) (UniProt Q9NWZ3)
MAP3K7 TAB1 (human) = MAP3K7 TAB1 (human) (UniProt Q15750+O43318)
MAPK12 (human) = MAPK12 (human) (UniProt P53778)
MAPK14 (human) = MAPK14 (human) (UniProt Q16539)
MAPKAPK2 (human) = MAPKAPK2 (human) (UniProt P49137)
MAPKAPK5 (human) = MAPKAPK5 (human) (UniProt Q8IW41)
MARK1 (human) = MARK1 (human) (UniProt Q9P0L2)
MARK2 (human) = MARK2 (human) (UniProt Q7KZI7)
MELK (human) = MELK (human) (UniProt Q14680)
MYLK (human) = MYLK (human) (UniProt Q15746)
NEK2 (human) = NEK2 (human) (UniProt P51955)
PIM1 (human) = PIM1 (human) (UniProt P11309)
PIM3 (human) = PIM3 (human) (UniProt Q86V86)
PKN2 (human) = PKN2 (human) (UniProt Q16513)
PRKCA (human) = PRKCA (human) (UniProt P17252)
ROCK2 (rat) = conditions: accession and sequence are those of the human protein
RPS6KA1 KD1 KD2 (human) = RPS6KA1 KD1 KD2 (human) (UniProt Q15418)
[1] = system: RPS6KB1 (human), P23443 [T412E]
[2] = system: SGK1 (human), O00141 [S422D]
STK3 (human) = STK3 (human) (UniProt Q13188)
TAOK1 (human) = TAOK1 (human) (UniProt Q7L7X3)
TTK (human) = TTK (human) (UniProt P33981)

DAPK1 (human), sequence (P53355 whole entry, looked up): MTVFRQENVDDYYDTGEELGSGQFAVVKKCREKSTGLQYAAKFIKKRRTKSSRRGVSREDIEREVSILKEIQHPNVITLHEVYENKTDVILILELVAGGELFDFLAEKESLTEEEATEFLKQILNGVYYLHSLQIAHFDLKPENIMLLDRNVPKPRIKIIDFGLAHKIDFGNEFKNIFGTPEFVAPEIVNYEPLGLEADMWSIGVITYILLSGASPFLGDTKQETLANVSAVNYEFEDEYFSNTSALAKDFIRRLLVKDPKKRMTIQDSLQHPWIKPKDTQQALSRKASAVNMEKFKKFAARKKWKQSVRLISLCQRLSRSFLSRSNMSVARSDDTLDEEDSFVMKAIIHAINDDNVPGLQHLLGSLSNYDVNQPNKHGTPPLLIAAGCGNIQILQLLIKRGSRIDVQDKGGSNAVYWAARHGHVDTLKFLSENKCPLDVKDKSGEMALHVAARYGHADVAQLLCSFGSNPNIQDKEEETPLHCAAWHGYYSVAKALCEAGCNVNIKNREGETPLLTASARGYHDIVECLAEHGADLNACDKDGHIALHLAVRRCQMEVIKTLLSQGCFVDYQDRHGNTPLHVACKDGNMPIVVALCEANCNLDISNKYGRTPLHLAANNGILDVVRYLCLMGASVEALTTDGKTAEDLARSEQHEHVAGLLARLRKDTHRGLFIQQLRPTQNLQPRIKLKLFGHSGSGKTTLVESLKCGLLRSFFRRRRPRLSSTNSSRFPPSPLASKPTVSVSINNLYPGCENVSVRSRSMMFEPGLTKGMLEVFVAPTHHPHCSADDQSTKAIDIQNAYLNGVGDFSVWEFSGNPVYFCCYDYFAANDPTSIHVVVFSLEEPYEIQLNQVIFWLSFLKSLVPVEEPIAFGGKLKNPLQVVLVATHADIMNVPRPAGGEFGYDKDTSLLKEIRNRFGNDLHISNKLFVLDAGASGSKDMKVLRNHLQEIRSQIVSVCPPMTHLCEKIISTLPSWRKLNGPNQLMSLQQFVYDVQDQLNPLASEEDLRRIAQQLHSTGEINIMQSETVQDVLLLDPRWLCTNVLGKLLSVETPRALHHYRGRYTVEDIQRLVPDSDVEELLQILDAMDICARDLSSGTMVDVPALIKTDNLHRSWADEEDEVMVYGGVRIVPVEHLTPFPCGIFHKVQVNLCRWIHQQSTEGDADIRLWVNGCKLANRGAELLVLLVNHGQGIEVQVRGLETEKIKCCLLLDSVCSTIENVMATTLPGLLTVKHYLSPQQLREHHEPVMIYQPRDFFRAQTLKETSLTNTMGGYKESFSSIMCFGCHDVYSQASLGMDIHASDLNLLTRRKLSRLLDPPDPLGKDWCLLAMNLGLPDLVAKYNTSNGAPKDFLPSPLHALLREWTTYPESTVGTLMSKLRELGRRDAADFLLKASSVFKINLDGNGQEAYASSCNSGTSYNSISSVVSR
EPHA2 (human), sequence (P29317 whole entry, looked up): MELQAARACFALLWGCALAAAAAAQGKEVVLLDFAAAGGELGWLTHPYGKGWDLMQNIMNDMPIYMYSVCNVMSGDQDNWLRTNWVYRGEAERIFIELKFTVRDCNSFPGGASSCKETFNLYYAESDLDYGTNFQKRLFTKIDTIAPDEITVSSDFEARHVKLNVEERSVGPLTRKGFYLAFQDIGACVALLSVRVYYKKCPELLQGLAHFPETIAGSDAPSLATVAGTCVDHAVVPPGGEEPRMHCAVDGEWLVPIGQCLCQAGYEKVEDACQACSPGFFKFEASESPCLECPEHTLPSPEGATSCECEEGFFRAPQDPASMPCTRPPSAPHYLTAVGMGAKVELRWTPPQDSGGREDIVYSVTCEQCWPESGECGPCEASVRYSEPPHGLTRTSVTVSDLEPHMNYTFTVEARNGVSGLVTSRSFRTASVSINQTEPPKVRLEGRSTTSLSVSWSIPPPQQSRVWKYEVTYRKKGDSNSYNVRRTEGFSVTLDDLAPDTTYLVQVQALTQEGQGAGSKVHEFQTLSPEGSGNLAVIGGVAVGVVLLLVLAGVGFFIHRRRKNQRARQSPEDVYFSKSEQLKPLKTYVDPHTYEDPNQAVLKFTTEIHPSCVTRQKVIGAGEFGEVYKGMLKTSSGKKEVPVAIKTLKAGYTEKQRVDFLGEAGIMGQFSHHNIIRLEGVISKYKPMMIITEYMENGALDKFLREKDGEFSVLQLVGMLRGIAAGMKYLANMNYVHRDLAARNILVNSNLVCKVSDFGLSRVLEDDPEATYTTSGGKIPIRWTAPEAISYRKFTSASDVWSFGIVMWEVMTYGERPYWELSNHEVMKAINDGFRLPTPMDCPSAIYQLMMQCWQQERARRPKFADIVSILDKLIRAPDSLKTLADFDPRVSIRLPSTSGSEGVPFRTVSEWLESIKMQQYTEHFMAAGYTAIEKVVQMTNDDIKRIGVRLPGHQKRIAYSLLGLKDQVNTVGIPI
NEK2 (human), sequence (P51955 whole entry, looked up): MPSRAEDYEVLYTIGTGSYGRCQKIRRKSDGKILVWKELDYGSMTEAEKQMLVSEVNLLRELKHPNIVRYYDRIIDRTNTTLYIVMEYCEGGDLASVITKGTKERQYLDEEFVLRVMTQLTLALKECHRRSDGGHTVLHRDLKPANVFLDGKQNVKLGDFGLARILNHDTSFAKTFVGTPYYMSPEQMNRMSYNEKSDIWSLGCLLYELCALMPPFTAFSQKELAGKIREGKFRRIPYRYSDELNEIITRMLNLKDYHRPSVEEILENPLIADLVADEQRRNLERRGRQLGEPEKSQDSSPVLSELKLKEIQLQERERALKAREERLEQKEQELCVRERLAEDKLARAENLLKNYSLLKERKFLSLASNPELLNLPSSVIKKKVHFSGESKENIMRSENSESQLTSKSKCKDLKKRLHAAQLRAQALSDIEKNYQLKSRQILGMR
IKBKE (human), sequence (Q14164 whole entry, looked up): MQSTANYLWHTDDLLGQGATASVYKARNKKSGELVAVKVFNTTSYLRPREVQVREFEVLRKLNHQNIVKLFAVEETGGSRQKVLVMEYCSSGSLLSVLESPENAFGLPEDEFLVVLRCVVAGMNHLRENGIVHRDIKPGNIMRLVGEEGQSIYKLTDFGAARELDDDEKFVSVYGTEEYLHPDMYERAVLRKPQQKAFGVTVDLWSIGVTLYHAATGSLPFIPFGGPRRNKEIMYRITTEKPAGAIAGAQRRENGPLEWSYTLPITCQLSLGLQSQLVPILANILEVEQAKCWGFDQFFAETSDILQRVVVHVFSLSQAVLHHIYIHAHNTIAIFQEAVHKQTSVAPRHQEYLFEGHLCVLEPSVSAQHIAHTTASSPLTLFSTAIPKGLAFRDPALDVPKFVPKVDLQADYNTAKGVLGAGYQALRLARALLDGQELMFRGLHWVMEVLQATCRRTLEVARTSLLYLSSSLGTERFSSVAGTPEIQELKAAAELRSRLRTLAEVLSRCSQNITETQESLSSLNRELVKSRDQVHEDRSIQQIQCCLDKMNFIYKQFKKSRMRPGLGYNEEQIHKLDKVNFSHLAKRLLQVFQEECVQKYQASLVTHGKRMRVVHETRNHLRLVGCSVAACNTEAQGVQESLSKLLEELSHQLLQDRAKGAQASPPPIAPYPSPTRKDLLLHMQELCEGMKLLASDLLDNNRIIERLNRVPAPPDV
STK3 (human), sequence (Q13188 whole entry, looked up): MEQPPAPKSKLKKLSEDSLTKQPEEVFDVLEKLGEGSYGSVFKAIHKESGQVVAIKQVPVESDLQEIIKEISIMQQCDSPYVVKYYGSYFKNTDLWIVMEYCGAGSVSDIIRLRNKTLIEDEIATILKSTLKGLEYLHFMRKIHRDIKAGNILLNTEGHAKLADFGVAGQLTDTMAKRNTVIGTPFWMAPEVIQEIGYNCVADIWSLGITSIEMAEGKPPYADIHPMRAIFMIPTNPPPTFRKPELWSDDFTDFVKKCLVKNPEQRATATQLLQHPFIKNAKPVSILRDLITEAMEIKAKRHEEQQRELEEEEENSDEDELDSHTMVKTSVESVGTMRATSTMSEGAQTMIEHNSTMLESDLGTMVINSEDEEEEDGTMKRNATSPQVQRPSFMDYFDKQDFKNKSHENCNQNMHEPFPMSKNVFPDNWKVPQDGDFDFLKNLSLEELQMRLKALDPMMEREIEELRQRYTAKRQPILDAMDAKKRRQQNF
PIM1 (human), sequence (P11309 whole entry, looked up): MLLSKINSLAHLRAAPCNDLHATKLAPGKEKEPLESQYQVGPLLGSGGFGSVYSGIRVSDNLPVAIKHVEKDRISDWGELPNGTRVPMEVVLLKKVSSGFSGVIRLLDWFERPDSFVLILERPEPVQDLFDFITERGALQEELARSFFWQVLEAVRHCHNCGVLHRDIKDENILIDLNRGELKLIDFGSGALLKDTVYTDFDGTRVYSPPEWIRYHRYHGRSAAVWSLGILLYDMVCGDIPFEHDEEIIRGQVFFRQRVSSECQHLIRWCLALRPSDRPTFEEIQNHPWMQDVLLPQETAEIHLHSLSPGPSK

residual activity (CHEK2 (human); compound 1.0 µM): 12% | residual activity (CHEK2 (human); compound 10.0 µM): 2% | residual activity (CLK2 (human); compound 1.0 µM): 50% | residual activity (CLK2 (human); compound 10.0 µM): 9% | residual activity (DAPK1 (human); compound 1.0 µM): 43% | residual activity (DAPK1 (human); compound 10.0 µM): 9% | residual activity (DYRK2 (human); compound 1.0 µM): 50% | residual activity (DYRK2 (human); compound 10.0 µM): 17% | residual activity (DYRK3 (human); compound 1.0 µM): 96% | residual activity (DYRK3 (human); compound 10.0 µM): 58% | residual activity (EPHA2 (human); compound 1.0 µM): 107% | residual activity (EPHA2 (human); compound 10.0 µM): 86% | residual activity (EPHB1 (human); compound 1.0 µM): 100% | residual activity (EPHB1 (human); compound 10.0 µM): 90% | residual activity (EPHB2 (human); compound 1.0 µM): 110% | residual activity (EPHB2 (human); compound 10.0 µM): 100% | residual activity (EPHB4 (human); compound 1.0 µM): 96% | residual activity (EPHB4 (human); compound 10.0 µM): 87% | residual activity (FLT1 (human); compound 1.0 µM): 62% | residual activity (FLT1 (human); compound 10.0 µM): 13% | residual activity (GCK (human); compound 1.0 µM): 88% | residual activity (GCK (human); compound 10.0 µM): 28% | residual activity (HIPK2 (human); compound 1.0 µM): 88% | residual activity (HIPK2 (human); compound 10.0 µM): 65% | residual activity (IKBKE (human); compound 1.0 µM): 78% | residual activity (IKBKE (human); compound 10.0 µM): 23% | residual activity (IRAK4 (human); compound 1.0 µM): 103% | residual activity (IRAK4 (human); compound 10.0 µM): 83% | residual activity (MAP3K7 TAB1 (human); compound 1.0 µM): 17% | residual activity (MAP3K7 TAB1 (human); compound 10.0 µM): 2% | residual activity (MAPK12 (human); compound 1.0 µM): 99% | residual activity (MAPK12 (human); compound 10.0 µM): 102% | residual activity (MAPK14 (human); compound 1.0 µM): 89% | residual activity (MAPK14 (human); compound 10.0 µM): 101% | residual activity (MAPKAPK2 (human); compound 1.0 µM): 107% | residual activity (MAPKAPK2 (human); compound 10.0 µM): 85% | residual activity (MAPKAPK5 (human); compound 1.0 µM): 80% | residual activity (MAPKAPK5 (human); compound 10.0 µM): 55% | residual activity (MARK1 (human); compound 1.0 µM): 97% | residual activity (MARK1 (human); compound 10.0 µM): 58% | residual activity (MARK2 (human); compound 1.0 µM): 98% | residual activity (MARK2 (human); compound 10.0 µM): 73% | residual activity (MELK (human); compound 1.0 µM): 90% | residual activity (MELK (human); compound 10.0 µM): 43% | residual activity (MYLK (human); compound 1.0 µM): 31% | residual activity (MYLK (human); compound 10.0 µM): 6% | residual activity (NEK2 (human); compound 1.0 µM): 99% | residual activity (NEK2 (human); compound 10.0 µM): 92% | residual activity (PIM1 (human); compound 1.0 µM): 94% | residual activity (PIM1 (human); compound 10.0 µM): 99% | residual activity (PIM3 (human); compound 1.0 µM): 105% | residual activity (PIM3 (human); compound 10.0 µM): 76% | residual activity (PKN2 (human); compound 1.0 µM): 73% | residual activity (PKN2 (human); compound 10.0 µM): 65% | residual activity (PRKCA (human); compound 1.0 µM): 95% | residual activity (PRKCA (human); compound 10.0 µM): 97% | residual activity (ROCK2 (rat); compound 1.0 µM): 85% | residual activity (ROCK2 (rat); compound 10.0 µM): 72% | residual activity (RPS6KA1 KD1 KD2 (human); compound 1.0 µM): 21% | residual activity (RPS6KA1 KD1 KD2 (human); compound 10.0 µM): 8% | residual activity ([1]; compound 1.0 µM): 89% | residual activity ([1]; compound 10.0 µM): 60% | residual activity ([2]; compound 1.0 µM): 72% | residual activity ([2]; compound 10.0 µM): 59% | residual activity (STK3 (human); compound 1.0 µM): 85% | residual activity (STK3 (human); compound 10.0 µM): 73% | residual activity (TAOK1 (human); compound 1.0 µM): 111% | residual activity (TAOK1 (human); compound 10.0 µM): 102% | residual activity (TTK (human); compound 1.0 µM): 52% | residual activity (TTK (human); compound 10.0 µM): 32%
Compound: CCNc1nc(Nc2cc(F)c(C(=O)N3CCOCC3)cc2OC)ncc1C(F)(F)F

residual activity (CHEK2 (human); compound 1.0 µM): 102% | residual activity (CHEK2 (human); compound 10.0 µM): 37% | residual activity (CLK2 (human); compound 1.0 µM): 73% | residual activity (CLK2 (human); compound 10.0 µM): 14% | residual activity (DAPK1 (human); compound 1.0 µM): 47% | residual activity (DAPK1 (human); compound 10.0 µM): 17% | residual activity (DYRK2 (human); compound 1.0 µM): 16% | residual activity (DYRK2 (human); compound 10.0 µM): 3% | residual activity (DYRK3 (human); compound 1.0 µM): 18% | residual activity (DYRK3 (human); compound 10.0 µM): 3% | residual activity (EPHA2 (human); compound 1.0 µM): 126% | residual activity (EPHA2 (human); compound 10.0 µM): 94% | residual activity (EPHB1 (human); compound 1.0 µM): 108% | residual activity (EPHB1 (human); compound 10.0 µM): 100% | residual activity (EPHB2 (human); compound 1.0 µM): 111% | residual activity (EPHB2 (human); compound 10.0 µM): 120% | residual activity (EPHB4 (human); compound 1.0 µM): 109% | residual activity (EPHB4 (human); compound 10.0 µM): 110% | residual activity (FLT1 (human); compound 1.0 µM): 96% | residual activity (FLT1 (human); compound 10.0 µM): 29% | residual activity (GCK (human); compound 1.0 µM): 68% | residual activity (GCK (human); compound 10.0 µM): 17% | residual activity (HIPK2 (human); compound 1.0 µM): 22% | residual activity (HIPK2 (human); compound 10.0 µM): 11% | residual activity (IKBKE (human); compound 1.0 µM): 109% | residual activity (IKBKE (human); compound 10.0 µM): 60% | residual activity (IRAK4 (human); compound 1.0 µM): 90% | residual activity (IRAK4 (human); compound 10.0 µM): 88% | residual activity (MAP3K7 TAB1 (human); compound 1.0 µM): 104% | residual activity (MAP3K7 TAB1 (human); compound 10.0 µM): 67% | residual activity (MAPK12 (human); compound 1.0 µM): 91% | residual activity (MAPK12 (human); compound 10.0 µM): 73% | residual activity (MAPK14 (human); compound 1.0 µM): 102% | residual activity (MAPK14 (human); compound 10.0 µM): 107% | residual activity (MAPKAPK2 (human); compound 1.0 µM): 97% | residual activity (MAPKAPK2 (human); compound 10.0 µM): 94% | residual activity (MAPKAPK5 (human); compound 1.0 µM): 110% | residual activity (MAPKAPK5 (human); compound 10.0 µM): 67% | residual activity (MARK1 (human); compound 1.0 µM): 99% | residual activity (MARK1 (human); compound 10.0 µM): 72% | residual activity (MARK2 (human); compound 1.0 µM): 83% | residual activity (MARK2 (human); compound 10.0 µM): 84% | residual activity (MELK (human); compound 1.0 µM): 81% | residual activity (MELK (human); compound 10.0 µM): 19% | residual activity (MYLK (human); compound 1.0 µM): 94% | residual activity (MYLK (human); compound 10.0 µM): 42% | residual activity (NEK2 (human); compound 1.0 µM): 108% | residual activity (NEK2 (human); compound 10.0 µM): 113% | residual activity (PIM1 (human); compound 1.0 µM): 70% | residual activity (PIM1 (human); compound 10.0 µM): 17% | residual activity (PIM3 (human); compound 1.0 µM): 74% | residual activity (PIM3 (human); compound 10.0 µM): 31% | residual activity (PKN2 (human); compound 1.0 µM): 98% | residual activity (PKN2 (human); compound 10.0 µM): 54% | residual activity (PRKCA (human); compound 1.0 µM): 107% | residual activity (PRKCA (human); compound 10.0 µM): 59% | residual activity (ROCK2 (rat); compound 1.0 µM): 90% | residual activity (ROCK2 (rat); compound 10.0 µM): 93% | residual activity (RPS6KA1 KD1 KD2 (human); compound 1.0 µM): 122% | residual activity (RPS6KA1 KD1 KD2 (human); compound 10.0 µM): 57% | residual activity ([1]; compound 1.0 µM): 98% | residual activity ([1]; compound 10.0 µM): 50% | residual activity ([2]; compound 1.0 µM): 93% | residual activity ([2]; compound 10.0 µM): 39% | residual activity (STK3 (human); compound 1.0 µM): 93% | residual activity (STK3 (human); compound 10.0 µM): 76% | residual activity (TAOK1 (human); compound 1.0 µM): 65% | residual activity (TAOK1 (human); compound 10.0 µM): 30% | residual activity (TTK (human); compound 1.0 µM): 83% | residual activity (TTK (human); compound 10.0 µM): 63%
Compound: FC(F)(F)c1ccc(-c2ccc(Oc3cncc4sc(-c5nn[nH]n5)cc34)cc2)cc1
